Like-named read-outs stand apart in the source and are kept apart here.
How the values were obtained:
[1] = tested on: Enterococcus faecalis KIH-C233; experiment: MIC of antibiotics for the strain used; format: cell-based; settings: E. faecalis KIH-C233, collected from a patient
[2] = tested on: Enterococcus gallinarum KIH-241; experiment: MIC of antibiotics for the strain used; format: cell-based
[3] = tested on: Enterococcus faecium KIH-234; experiment: MIC of antibiotics for the strain used; format: cell-based; settings: KIH234, E. faecium KIH-234, collected from a patient
[4] = tested on: Enterococcus faecium KIH-237; experiment: MIC of antibiotics for the strain used; format: cell-based; settings: KIH237, E. faecium KIH-237, collected from an imported chicken
[5] = Solubility of hinokitiol in liquid carrier; format: physicochemical
[6] = expected maximum; cited from earlier work
[7] = Enterococcus faecalis, KIHC233, read-out: MIC
[8] = Enterococcus gallinarum, E. gallinarum KIH-241, collected from a chicken grown in Japan, read-out: MIC

| MIC [1, 7] [µg/mL] | MIC [3] [µg/mL] | MIC [4] [µg/mL] | MIC [2, 8] [µg/mL] | SMILES | further results |
| --- | --- | --- | --- | --- | --- |
| 1 | 16 | 4 | 4 | CC1(C)S[C@@H]2[C@H](NC(=O)[C@H](N)c3ccccc3)C(=O)N2[C@H]1C(=O)O [ABPC, aminobenzylpenicillin] |  |
| 4 | 16 | 16 | 1 | CC1(C)S[C@@H]2[C@H](NC(=O)Cc3ccccc3)C(=O)N2[C@H]1C(=O)O [PCG, benzylpenicillin] |  |

The remaining lines, values behind:

| SMILES | MIC [1, 7] [µg/mL] | MIC [3] [µg/mL] | MIC [4] [µg/mL] | MIC [2, 8] [µg/mL] | further results |
| --- | --- | --- | --- | --- | --- |
| C[C@@H](O)[C@H]1C(=O)N2C(C(=O)O)=C(SCCN=CN)C[C@H]12 [IPM, imipenem] |  |  |  |  | MIC [1]: 1 µg/mL; MIC ([2]; E. gallinarum KIH-241, collected from a chicken grown in Japan): 1 µg/mL |
| CC(C)c1cccc(=O)c(O)c1 [hinokitiol, Hinokitiol] |  |  |  |  | hinokitiol content achievable in the composition ([5]; alcohol as liquid carrier, without aloe extract and the like extract): up to 5 % by mass; hinokitiol concentration obtainable in aqueous solution ([5]; water with surface active agent (glycerin fatty acid ester) and/or botanical emulsifier (quillaia saponin)): up to 10 % by mass; hinokitiol concentration obtainable in aqueous solution ([5]; water, combined with the aloe extract and like extracts): about 1 % by mass |
| CN[C@H](CC(C)C)C(=O)N[C@H]1C(=O)N[C@@H](CC(N)=O)C(=O)N[C@H]2C(=O)N[C@H]3C(=O)N[C@H](C(=O)N[C@H](C(=O)O)c4cc(O)cc(O)c4-c4cc3ccc4O)[C@H](O)c3ccc(c(Cl)c3)Oc3cc2cc(c3O[C@@H]2O[C@H](CO)[C@@H](O)[C@H](O)[C@H]2O[C@H]2C[C@](C)(N)[C@H](O)[C@H](C)O2)Oc2ccc(cc2Cl)[C@H]1O [VCM, vancomycin] | 2 | 0.5 | 500 |  | MIC ([2]; Enterococcus gallinarum, GALLINARUM): 8 µg/mL; concentration of vancomycin in blood at maximum [6]: no more than 6 μg/ml |
| CO[C@@]1(NC(=O)CSCC#N)C(=O)N2C(C(=O)O)=C(CSc3nnnn3C)CS[C@@H]21 [CMZ, cefmetazole] | > 32 | > 32 | > 32 | > 32 |  |
| CC[C@H]1OC(=O)[C@H](C)[C@@H](O[C@H]2C[C@@](C)(OC)[C@@H](O)[C@H](C)O2)[C@H](C)[C@@H](O[C@@H]2O[C@H](C)C[C@H](N(C)C)[C@H]2O)[C@](C)(O)C[C@@H](C)C(=O)[C@H](C)[C@@H](O)[C@]1(C)O [EM, erythromycin] | > 32 | > 32 | > 32 | > 1 |  |
